Experimental data taken from US8188003B2, “Method of inducing virus tolerance of plants” (BASF Aktiengesellschaft, priority 2005, dated 2012).

Assays:
TMV [1] = assay: Use example 5: spraying the leaves with active ingredient solutions, TMV infection 5 days after treatment, lesion area versus control; format: in vivo, tobacco plants (cultivar Xanthi-nc); details: 2 mM with universal wetter 1:1 (w/w), sprayed, evaluated after further 4 days
Description: In each case 2 mM active ingredient were dissolved in water with the aid of a universal wetter in the ratio 1:1 (w/w) and sprayed onto the leaf halves of 5-week-old tobacco plants (cultivar Xanthi-nc) (leaf halves of the controls were sprayed with dissolved wetter only).
(§1) Infection with TMV was carried out 5 days after the treatment, and the plants were evaluated after further 4 days. The data shown are the averages of the leaf areas which had died owing to viral attack (lesions) at the infection site on leaf halves treated with active ingredient or untreated leaf halves (controls):
(§2) Area of the lesions in comparison with the control: […]

TMV [2] = assay: Use example 4: leaf halves infiltrated, TMV infection 2 days after treatment, lesion area versus control; format: in vivo, tobacco plants (cultivar Xanthi-nc); details: 1 mM in 1% aqueous ethanol, evaluated after further 5 days
Description: (§3) Leaf halves of approx. 5-weeks-old tobacco plants (cultivar Xanthi-nc) were infiltrated with 1 mM active ingredient solution in 1% aqueous ethanol; the leaf halves of the controls were infiltrated with 1% aqueous ethanol.
The procedure of use example 3 was followed, but infection was carried out 2 days after the treatment and the plants were evaluated after further 5 days.
as §2

TMV [3] = assay: Use example 3: leaf halves infiltrated, TMV infection 1 day after treatment, lesion area versus control; format: in vivo, tobacco plants (cultivar Xanthi-nc); details: 1 mM in 1% aqueous ethanol, evaluated after further 5 days
Description: as §3
as §1, with “our 1 day” for “out 5 days”, “treatment;” for “the treatment, and”, “5” for “4”
as §2

[4] = test system: tobacco mosaic virus (TMV, strain U1); assay: Use example 2: one leaf half infiltrated with active ingredient solution, TMV infection, lesion diameter; format: in vivo, tobacco plants (Nicotinia tabacum cv. Xanthi-nc); details: after 5 days
Description: (§4) For the experiments, tobacco plants (Nicotinia tabacum cv. Xanthi-nc) were grown at 25° C., an atmospheric humidity of 59% and a daily photoperiod of 16 hours (150-200 μM quanta/s^−1/m^−2) for 4 to 5 weeks in potting compost (standard soil type ED 73). Some of the plants were fed once per week by adding a commercial house-plant fertilizer (10% total nitrogen, 9% phosphate, 7% potash) to the irrigation water at the recommended rate.
(§5) The formulated active ingredient used took the form of water-dispersible granules with an active ingredient content of 20%. The concentrations used in the experiments (0.01-10 mM) are based on the active ingredient content. To prevent distribution of the active ingredient in the entire plant, the stalks of plants where a leaf had been infiltrated were removed above the treated leaf, using a sterile surgical blade.
(§6) After the application of the active ingredient, and also after infection with the virus at a later time, the plants were left to stand in the growth cabinet.
(§7) The various pretreated tobacco plants were infected with tobacco mosaic virus (TMV, strain U1). […] Five to 7 days post-infection, the diameter of 10 to 20 lesions on the leaves was determined. […]
After 5 days, the diameter of the lesions on the leaves caused by TMV was determined in millimeters [mm].

TMV [5] = assay: Use example 6: plant growth and tolerance to viral infection of TMV-inoculated tomato plants after spray treatment; format: in vivo, Tomato plants (cultivar Gaucho)
Description: The experiments were performed in greenhouse of under appropriate growing conditions for tomatoes. Tomato plants (cultivar Gaucho) were grown in pots until development of the first two true leaves. Then the plantlets were sprayed with different concentrations of formulated Pyraclostrobin (compound I-5; commercial fungicide Cabrio Top® of BASF Aktiengesellschaft). These treatments were done either 120 hours before or following inoculation of the plantlets with TMV, representing protective and curative situation. The treatments were run with 5 replicates, each containing 3 plantlets. 30 days after last treatment the plants were analyzed for visual plant growth (altitude and dry mass) and chlorophyll content (photometric measurement of extracts). Also the virus titre was determined (ELISA).
Same letters indicate non significant differences (Tukey; P≦0.05).

[6] = test system: tobacco mosaic virus (TMV, strain U1); assay: Use example 1: active ingredient solution injected into tobacco leaves, TMV infection, lesion diameter; format: in vivo, tobacco plants (Nicotinia tabacum cv. Xanthi-nc); details: injected into leaf, infection 1 day after pretreatment, after 7 days, water control 3.55 mm
Description: as §4, §5, §6, §7
After 7 days, the diameter of the lesions on the leaves caused by TMV was determined in millimeters [mm].

| Molecule | Area of the lesions in comparison with the control, Area in percent (TMV [1]) [%] | Area of the lesions in comparison with the control, Area In percent (TMV [2]) [%] | Area of the lesions in comparison with the control, Area in percent (TMV [3]) [%] | diameter of the lesions on the leaves caused by TMV (average), treated leaf zones ([4]; 0.5 mM, water control plants 3.2 mm) [mm] | diameter of the lesions on the leaves caused by TMV (average), treated leaf zones ([4]; 1 mM, water control plants 3.35 mm) [mm] | effect compared with untreated plants (TMV [5]; Curative treatment) | effect on growth inhibition and loss of leaf chlorophyll caused by TMV infection (TMV [5]; protective treatment) | diameter of the lesions on the leaves caused by TMV (average) ([6]; 1 mM) [mm] | diameter of the lesions on the leaves caused by TMV (average) ([6]; 2.5 mM) [mm] |
| --- | --- | --- | --- | --- | --- | --- | --- | --- | --- |
| CO/C=C(/C(=O)OC)c1ccccc1Oc1cc(Oc2ccccc2C#N)ncn1 [VII-1, azoxystrobin] | 68.3 | 70.4 | 62.1 |  |  |  |  |  |  |
| CNC(=O)/C(=N/OC)c1ccccc1CO/N=C(C)/C(=N/OC)C(/C)=N/OC [Compound V-16, orysastrobin] |  |  | 63.8 |  |  |  |  |  |  |
| CNC(=O)/C(=N/OC)c1ccccc1COc1cc(C)ccc1C [II-3, dimoxystrobin] | 49.6 | 62.7 | 68.1 |  |  |  |  |  |  |
| pyraclostrobin [Compound I-5] |  |  | 53.0 | 2.75 | 2.85 | no advantage compared with untreated plants | can prevent growth inhibition and loss of leaf chlorophyll caused by TMV infection | 2.35 | 1.8 |
